This passage reports IC50, inhibition and Kd results from ChEMBL document CHEMBL6153040, “Discovery of the salicylaldehyde-based compound DDO-02267 as a lysine-targeting covalent inhibitor of ALKBH5” (Eur J Med Chem, 2025).

What is called IC50 is the concentration needed to halve the response being measured. High values mean weaker potency, low ones greater potency. The term Kd denotes the concentration at which binding is half-saturated.

Activity calls are given as the source filed them. No cut-off for these calls is given here. A value given as a limit tells only on which side of the number the result lay.

Test [1] addresses T1, RNA demethylase ALKBH5 (Homo sapiens, UniProt Q6P6C2). In words: Inhibition of ALKBH5 (66 to 292 residues) (unknown origin) extracted from Escherichia coli BL21 (DE3) cells using m6A ssDNA as substrate measured after 6 hrs by fluorescence polarization assay.
Target sequence in this assay (Q6P6C2 whole entry, the tested form may be a part): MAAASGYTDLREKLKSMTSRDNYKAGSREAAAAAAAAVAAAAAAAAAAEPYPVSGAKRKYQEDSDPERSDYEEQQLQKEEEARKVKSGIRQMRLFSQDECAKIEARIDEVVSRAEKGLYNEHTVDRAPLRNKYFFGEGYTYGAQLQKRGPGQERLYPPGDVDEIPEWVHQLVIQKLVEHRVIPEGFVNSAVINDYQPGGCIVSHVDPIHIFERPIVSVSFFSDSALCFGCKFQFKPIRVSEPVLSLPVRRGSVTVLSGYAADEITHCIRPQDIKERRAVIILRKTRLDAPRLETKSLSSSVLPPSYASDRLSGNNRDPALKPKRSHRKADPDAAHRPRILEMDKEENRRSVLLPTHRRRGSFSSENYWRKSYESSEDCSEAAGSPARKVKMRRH
The target in test [2] is T1, RNA demethylase ALKBH5. In words: Inhibition of ALKBH5 (66 to 292 residues) (unknown origin) extracted from Escherichia coli BL21 (DE3) cells using m6A ssDNA as substrate measured after 1 hrs by fluorescence polarization assay. (Fluorescence polarisation rises when a labelled molecule tumbles more slowly, as on binding a larger partner.)
Target sequence in this assay (Q6P6C2 whole entry, the tested form may be a part): as above
The target of test [3] is T1, RNA demethylase ALKBH5. In words: Inhibition of ALKBH5 (66 to 292 residues) (unknown origin) extracted from Escherichia coli BL21 (DE3) cells using m6A ssDNA as substrate measured immediately by fluorescence polarization assay.
Target sequence in this assay (Q6P6C2 whole entry, the tested form may be a part): as above
The target in test [4] is T1, RNA demethylase ALKBH5. As to the kind of experiment: Inhibition of ALKBH5 (66 to 292 residues) (unknown origin) extracted from Escherichia coli BL21 (DE3) cells using m6A ssDNA as substrate measured after 2 hrs by fluorescence polarization assay.
Target sequence in this assay (Q6P6C2 whole entry, the tested form may be a part): as above
Test [5] has as its target T1, RNA demethylase ALKBH5. As to the kind of experiment: Inhibition of ALKBH5 (66 to 292 residues) (unknown origin) demethylase activity extracted from Escherichia coli BL21 (DE3) cells at 200 uM preincubated for 3 hrs and measured after compound washout by small molecule dilution method.
Target sequence in this assay (Q6P6C2 2-394 limits assumed): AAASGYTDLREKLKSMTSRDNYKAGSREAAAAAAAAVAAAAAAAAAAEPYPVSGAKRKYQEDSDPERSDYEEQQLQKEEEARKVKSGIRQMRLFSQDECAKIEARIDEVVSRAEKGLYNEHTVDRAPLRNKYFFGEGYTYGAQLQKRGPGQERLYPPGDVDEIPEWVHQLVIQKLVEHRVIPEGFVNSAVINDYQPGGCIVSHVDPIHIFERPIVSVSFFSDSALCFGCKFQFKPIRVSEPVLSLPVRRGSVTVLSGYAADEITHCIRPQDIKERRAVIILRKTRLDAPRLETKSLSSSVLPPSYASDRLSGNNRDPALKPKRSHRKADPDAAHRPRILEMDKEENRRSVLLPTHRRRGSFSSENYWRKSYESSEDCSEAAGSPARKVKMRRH
The target in test [6] is T1, RNA demethylase ALKBH5. As to the kind of experiment: Binding affinity to ALKBH5 (66 to 292 residues) (unknown origin) extracted from Escherichia coli BL21 (DE3) cells assessed as dissociation constant incubated for 1.5 hrs by MST analysis.
Target sequence in this assay (Q6P6C2 whole entry, the tested form may be a part): as the sequence (Q6P6C2 whole entry, the tested form may be a part) above
The target of test [7] is T1, RNA demethylase ALKBH5. In words: Binding affinity to ALKBH5 (66 to 292 residues) (unknown origin) extracted from Escherichia coli BL21 (DE3) cells assessed as dissociation constant incubated for 4 hrs by MST analysis.
Target sequence in this assay (Q6P6C2 whole entry, the tested form may be a part): as above
The target of test [8] is T1, RNA demethylase ALKBH5. In words: Inhibition of ALKBH5 (66 to 292 residues) (unknown origin) extracted from Escherichia coli BL21 (DE3) cells using m6A ssDNA as substrate incubated for 2 hrs by TBE-PAGE based restriction enzyme digestion assay.
Target sequence in this assay (Q6P6C2 2-394 limits assumed): as the sequence (Q6P6C2 2-394 limits assumed) above
Test [9] addresses T1, RNA demethylase ALKBH5. In words: Binding affinity to ALKBH5 (66 to 292 residues) (unknown origin) extracted from Escherichia coli BL21 (DE3) cells assessed as dissociation constant incubated for 3 hrs by MST analysis.
The target in test [10] is T1, RNA demethylase ALKBH5. As to the kind of experiment: Inhibition of ALKBH5 (66 to 292 residues) (unknown origin) extracted from Escherichia coli BL21 (DE3) cells using m6A ssDNA as substrate at 1.25 to 10 uM incubated for 2 hrs in presence of 2-OG by TBE-PAGE based restriction enzyme digestion assay. The following applies: dose 1.25-10 µM.
Target sequence in this assay (Q6P6C2 2-394 limits assumed): as above
Test [11] addresses T1, RNA demethylase ALKBH5. As to the kind of experiment: Binding affinity to ALKBH5 (66 to 292 residues) (unknown origin) extracted from Escherichia coli BL21 (DE3) cells assessed as dissociation constant incubated for 5 hrs by MST analysis.
For test [12], the target named is T1, RNA demethylase ALKBH5. As to the kind of experiment: Binding affinity to ALKBH5 (66 to 292 residues) (unknown origin) extracted from Escherichia coli BL21 (DE3) cells assessed as dissociation constant incubated for 1 hrs by MST analysis.

On to `O=C(OCc1ccc(C(F)(F)F)cc1)c1ccc(-c2cc3ncc(C(=O)c4c(O)ccc([N+](=O)[O-])c4O)cn3n2)cc1`, for which the IC50 in test [1] worked out at 4.06 µM.

On to `C=CC(=O)Nc1ccccc1S(=O)(=O)NC(=O)c1cc(C(=O)O)ccn1`, for which the 50% inhibitory concentration (IC50) was 21.6 µM in test [2], 21.2 µM in [3] and 19.2 µM in test [4].

For the compound `O=C(O)c1ccnc(C(=O)NS(=O)(=O)c2ccc(-c3ccccc3)cc2)c1`, the IC50 in [1] amounted to 16.5 µM.

`O=C(O)c1ccnc(C(=O)NCc2ccccc2[N+](=O)[O-])c1` came in with an IC50 in test [1] above 200 µM.

For the compound `N#Cc1cccc(S(=O)(=O)NC(=O)c2cc(C(=O)O)ccn2)c1`, the IC50 in test [1] is above 200 µM.

`COc1ccc(S(=O)(=O)NC(=O)c2cc(C(=O)O)ccn2)cc1`: it took 19.1 µM to reach half-maximal inhibition in test [1] (IC50).

As to `O=Cc1cc(S(=O)(=O)NC(=O)c2cc(C(=O)O)ccn2)ccc1O`, the IC50 in test [2] turned out to be 0.55 µM; in test [3], 3.4 µM; in test [4], 0.45 µM.

Consider `CN(C(=O)c1cc(C(=O)O)ccn1)S(=O)(=O)c1ccccc1[N+](=O)[O-]`, for which the IC50 in test [1] is above 200 µM.

Compound `O=C(O)c1ccnc(C(=O)NS(=O)(=O)c2ccccc2-c2ccccc2)c1` came in with an IC50 in test [1] of 82.1 µM.

In the case of `COC(=O)c1ccnc(C(=O)NS(=O)(=O)c2ccccc2[N+](=O)[O-])c1`, in [1], the IC50 was above 200 µM.

In the case of `CC(=O)c1cc(S(=O)(=O)NC(=O)c2cc(C(=O)O)ccn2)c2ccccc2c1O`, the IC50 in test [2] came to 5.81 µM; in test [3] it was 8.56 µM; in test [4], 5.52 µM.

In [1], `O=C(O)c1ccnc(C(=O)NS(=O)(=O)c2ccccc2C(F)(F)F)c1` registered an IC50 above 200 µM.

In [1], `COc1ccccc1S(=O)(=O)NC(=O)c1cc(C(=O)O)ccn1` had an IC50 above 200 µM.

For the compound `O=C(CCl)Nc1cccc(S(=O)(=O)NC(=O)c2cc(C(=O)O)ccn2)c1`, the IC50 in test [2] was 15 µM; in [3], 30.6 µM; in test [4], 10.4 µM.

Turning to `O=C(O)c1ccnc(C(=O)NS(=O)(=O)c2ccccc2)c1`, the IC50 was found to be 51.9 µM in [2], 56.8 µM in test [1], 64.9 µM in test [3] and 52.1 µM in test [4].

Take `N#Cc1ccccc1S(=O)(=O)NC(=O)c1cc(C(=O)O)ccn1`: the IC50 in test [1] is above 200 µM.

Compound `O=C(O)c1ccnc(C(=O)NS(=O)(=O)c2ccc3ccccc3c2)c1` displayed an IC50 in test [1] of 15.2 µM.

`O=C(O)c1ccnc(C(=O)NS(=O)(=O)c2cccc(-c3ccccc3)c2)c1` gave an IC50 in test [1] of 15 µM.

For `CC(=O)c1cc(S(=O)(=O)NC(=O)c2cc(C(=O)O)ccn2)ccc1O`, the IC50 in test [2] was 6.5 µM; in [3], 14.8 µM; in test [4] it was 4.38 µM.

`C=CC(=O)Nc1cccc(S(=O)(=O)NC(=O)c2cc(C(=O)O)ccn2)c1`: the IC50 worked out at 5.32 µM in test [2], 7.44 µM in [3] and 3.97 µM in [4].

As to `O=C(O)c1ccnc(C(=O)NS(=O)(=O)c2cccc3ccccc23)c1`, the inhibition entry in [5] and in test [10] was “inactive” throughout. The Kd in [6] was 52.2 µM; in test [7], 42 µM; in test [9] it was 63.9 µM; in test [11], 61.7 µM; in test [12], 58.7 µM. This compound displayed an IC50 in test [1] of 12.7 µM. Also, the inhibition entry in test [8] was “Active”.

`N#Cc1ccc(S(=O)(=O)NC(=O)c2cc(C(=O)O)ccn2)cc1` displayed an IC50 in test [1] of 39.9 µM.

Turning to `O=C(O)c1cccc(C(=O)NS(=O)(=O)c2ccccc2[N+](=O)[O-])c1`, the IC50 in [1] was above 200 µM.

Consider `O=C(CCl)Nc1ccccc1S(=O)(=O)NC(=O)c1cc(C(=O)O)ccn1`, for which the IC50 in [2] came out at 12.5 µM; in test [3], 18.4 µM; in test [4], 10.8 µM.
